Assay results taken from publication PMC4859512, “Polyamino-Isoprenic Derivatives Block Intrinsic Resistance of P. aeruginosa to Doxycycline and Chloramphenicol In Vitro” (PLoS ONE, 2016).
Read-outs that look alike come from different tables or passages of the source.

Columns and labels:
[1] = tested on: P. aeruginosa CMZ091 (Mex XY overproducer); assay: Antibiotic susceptibility testing (broth micro-dilution MIC), strain CMZ091; format: cell-based, Pseudomonas aeruginosa; conditions: Pseudomonas aeruginosa
Protocol: (§1) Experiments were performed on the BAC-SCREEN platform of the UMR-MD1, with a Freedom EVO 150 liquid handling system (Tecan, Lyon, France).
(§2) We concluded that compound 3 was the best compound and suitable for a more detailed study. The same experiment was performed using chloramphenicol (4 mg/L) in combination with 3 (10 μM final concentration). Amongst the 20 clinical isolates, the growth of 15 (75%) was impaired, while 5 (25%) were resistant (data not shown). These experiments were performed to study the effect of our compounds on the natural resistance of P. aeruginosa. In addition, we were wondering if compound 3 could also increase susceptibility to other antibiotic families including ß-Lactams, fluoroquinolones and aminoglycosides, that are representative of the main classes of anti-pseudomonal agents. Experiments were performed with the ß-lactams ceftazidime and ticarcillin and ciprofloxacin and amikacin. […] . […] To better characterize compound 3, we first searched for the minimum concentration of compound that allowed killing of bacteria by doxycycline, and PAßN was used as the reference molecule.

[2] = tested on: P. aeruginosa PT629 (Mex AB overproducer); assay: Antibiotic susceptibility testing (broth micro-dilution MIC), strain PT629; format: cell-based, Pseudomonas aeruginosa; conditions: Pseudomonas aeruginosa
Protocol: as §1, §2

[3] = tested on: P. aeruginosa PA0-7H (Mex EF overproducer); assay: Antibiotic susceptibility testing (broth micro-dilution MIC), strain PA0-7H; format: cell-based, Pseudomonas aeruginosa; conditions: Pseudomonas aeruginosa
Protocol: as §1, §2

[4] = tested on: P. aeruginosa PA01 (wt); assay: Antibiotic susceptibility testing (broth micro-dilution MIC), strain PA01; format: cell-based, Pseudomonas aeruginosa; conditions: for MIC: Pseudomonas aeruginosa
Protocol: as §1
(§3) The same experiment was performed using chloramphenicol (4 mg/L) in combination with 3 (10 μM final concentration). […] These experiments were performed to study the effect of our compounds on the natural resistance of P. aeruginosa. […] Experiments were performed with the ß-lactams ceftazidime and ticarcillin and ciprofloxacin and amikacin.

[5] = tested on: P. aeruginosa PA01 ERY^R (Mex CD overproducer); assay: microbe, parasite or virus in culture; format: cell-based, Pseudomonas aeruginosa; conditions: Pseudomonas aeruginosa
Protocol: as §1, §3

[6] = tested on: P. aeruginosa PA01; assay: Checkerboard assay with doxycycline; format: cell-based, Pseudomonas aeruginosa; conditions: Pseudomonas aeruginosa; PA01, checkerboard plate; read-out: Doxycycline MIC (alone)
Protocol: Serial two-fold dilutions of antimicrobial agents were mixed together in a microtiter plate. The range of concentration of each drug was twice the MIC, down to the eleventh serial two-fold dilutions below this amount. Doxycycline was serially diluted along the X-axis, and the polyamino-isoprenic compound or PAßN was diluted along the Y-axis as indicated. Each well was inoculated with a bacterial inoculum of 5 x 10^5 CFU/ml, and the plates were incubated at 37°C for 18 h under aerobic conditions. Each plate also contained a row and a column in which a serial dilution of polyamino-isoprenic compound or doxycycline, respectively, was present alone to determine the MIC. The FIC index was calculated as follows: FIC index = FIC A + FIC B, where FIC A is the MIC of drug A in the combination/MIC of drug A alone and FIC B is the MIC of drug B in the combination/MIC of drug B alone. The combination was considered synergistic when the FIC index is ≤0.5, and antagonistic when the FIC index is > 4 [26].

[7] = tested on: clinical isolates of P. aeruginosa; assay: Doxycycline MIC of the clinical isolates (S1 Table); format: cell-based; conditions: Pseudomonas aeruginosa
Protocol: The P. aeruginosa strains used in this study are described in Table 1. In addition, a series of 20 clinical isolates of P. aeruginosa obtained from the Hôpital d’Instruction des Armées Laveran, HIA-Laveran (Marseille, France) were also used in this study (S1 Table). Strains were stored at -80°C in 15% (v/v) glycerol for cryo-protection. Bacteria were routinely maintained on Mueller-Hinton (MH) agar plates and grown in cation-adjusted MH broth (MHBII) at 37°C.
as §1
Isolates Sampling location Sampling date Patient age Doxycycline MIC Main antibiotic resistance
AMK, LVX, OFX, TET, MIN, TGC, CHL, NET, CAR
PA2013-LAV17 Redon drain 15/12/2012 81 32 PIP, PIP/TZP, AZT, CAZ, TIC, TCC, FEP, FOS, TET,
TIC : ticarcillin, TCC : ticarcillin/clavulanic acid, FOS : fosfomycin, TET : tetracycline, MIN, minocycline, TCG, tigecycline, CAR : carbenicillin, PIP :
piperacillin, PIP/TZP : piperacillin/tazobactam, GEN : gentamycin, CAZ : ceftazidime, FEP : cefepime, TOB : tobramycin, IPM : imipenem, CIP :
ciprofloxacin, AMK : amikacin, LVX : levofloxacin, OFX : ofloxacin, NET : netilmicin, STR, streptomycin, MEM : meropenem.

[8] = PA01, antibiotic alone (∅), S3 Table, read-out: MIC
[9] = read-out: Minimal Inhibitory Concentration

O=C(O)c1cn(C2CC2)c2cc(N3CCNCC3)c(F)cc2c1=O [Ciprofloxacin, ciprofloxacin]
MIC [1]: 0.5 µg/mL | MIC [2]: 0.5 to 1 µg/mL | MIC [3]: 4 µg/mL

CC(C)(O/N=C(\C(=O)N[C@@H]1C(=O)N2C(C(=O)[O-])=C(C[n+]3ccccc3)CS[C@H]12)c1csc(N)n1)C(=O)O [Ceftazidime, ceftazidime]
MIC [4, 8]: 2 µg/mL | MIC [2]: 8 µg/mL | MIC [3]: 1 µg/mL

CC1(C)S[C@@H]2[C@H](NC(=O)[C@H](C(=O)O)c3ccsc3)C(=O)N2[C@H]1C(=O)O [Ticarcillin, ticarcillin]
MIC [4, 8]: 32 to 64 µg/mL | MIC [1]: 16 to 32 µg/mL | MIC [2]: > 64 µg/mL | MIC [3]: 8 µg/mL | MIC [5]: 32 to 64 µg/mL

NCC[C@H](O)C(=O)N[C@@H]1C[C@H](N)[C@@H](O[C@H]2O[C@H](CN)[C@@H](O)[C@H](O)[C@H]2O)[C@H](O)[C@H]1O[C@H]1O[C@H](CO)[C@@H](O)[C@H](N)[C@H]1O [Amikacin, amikacin]
MIC [4, 8]: 8 µg/mL | MIC [1]: 32 µg/mL | MIC [2]: 4 µg/mL | MIC [3]: 4 µg/mL | MIC [5]: 1 µg/mL

polymyxin-B
Minimal Inhibitory Concentration ([4]; PA01, wt): < 10 µM

C[C@H]1c2cccc(O)c2C(=O)C2=C(O)[C@]3(O)C(=O)C(C(N)=O)=C(O)[C@@H](N(C)C)[C@@H]3[C@@H](O)[C@@H]21 [doxycycline]
MIC ([4]; PA01, wt, mean of 3 independent experiments, read-out: Minimal Inhibitory Concentration): 32 µg/mL | MIC [2, 9]: > 32 µg/mL | MIC [6]: 32 µg/mL | MIC ([7]; isolate PA2013-LAV01): 32 µg/mL | MIC ([7]; isolate PA2013-LAV02): 32 µg/mL | MIC ([7]; isolate PA2013-LAV03): > 32 µg/mL | MIC ([7]; isolate PA2013-LAV04): 32 µg/mL | MIC ([7]; isolate PA2013-LAV05): > 32 µg/mL | MIC ([7]; isolate PA2013-LAV06): 32 µg/mL | MIC ([7]; isolate PA2013-LAV07): 32 µg/mL | MIC ([7]; isolate PA2013-LAV08): 32 µg/mL | MIC ([7]; isolate PA2013-LAV09): > 32 µg/mL | MIC ([7]; isolate PA2013-LAV10): 32 µg/mL | MIC ([7]; isolate PA2013-LAV11): 32 µg/mL | MIC ([7]; isolate PA2013-LAV12): 32 µg/mL | MIC ([7]; isolate PA2013-LAV13): 32 µg/mL | MIC ([7]; isolate PA2013-LAV14): > 32 µg/mL | MIC ([7]; isolate PA2013-LAV15): > 32 µg/mL | MIC ([7]; isolate PA2013-LAV16): 32 µg/mL | MIC ([7]; isolate PA2013-LAV17): 32 µg/mL | MIC ([7]; isolate PA2013-LAV18): > 32 µg/mL | MIC ([7]; isolate PA2013-LAV19): 32 µg/mL | MIC ([7]; isolate PA2013-LAV20): > 32 µg/mL | MIC [3, 9]: > 32 µg/mL | MIC [5, 9]: 16 µg/mL
